Test results from paper PMC12305494, “Discovery of PXR Antagonist MI891 and PXR Degrader MI1013 and Their Roles in Hepatic Gene Regulation” (Journal of Medicinal Chemistry, 2025).

Tests used:
[1] = Plasma stability, mouse plasma; type: in vitro ADME; details: up to 120 min, read-out: Plasma stability, t1/2 (min), mouse
Experimental: The protocols and reagents for the plasma protein binding assay and metabolic stability testing in human and mouse liver microsomes are detailed in our previous report. Briefly, metabolic stability of compounds was assessed at a single concentration (5 μM) at t = 0, 10, 30, and at t = 45 min. The stability of compounds was tested in human and mouse microsomes (ThermoFisher Scientific). Compounds were tested in triplicate with or without NADPH wells as a negative control for cytochrome P450 metabolism. In addition to hepatic metabolism, compounds were also subjected to degradation/modification by enzymes in human (VWR International) and mouse (Biomedica, CZ) plasma for t = 0, 30, 60, and at t = 120 min. Each assay included a substrate with known activity as a positive control. Time points were analyzed by LC/MS/MS. The peak area for the parent compound is compared to the time zero sample in order to assess the amount of remaining compound.

Abl(h) = Abl(h) (Homo sapiens, UniProt P00519); test: Off-target kinase panel; type: biochemical; details: MI891 @ 1 µM
Sequence of Abl(h) (P00519 whole entry): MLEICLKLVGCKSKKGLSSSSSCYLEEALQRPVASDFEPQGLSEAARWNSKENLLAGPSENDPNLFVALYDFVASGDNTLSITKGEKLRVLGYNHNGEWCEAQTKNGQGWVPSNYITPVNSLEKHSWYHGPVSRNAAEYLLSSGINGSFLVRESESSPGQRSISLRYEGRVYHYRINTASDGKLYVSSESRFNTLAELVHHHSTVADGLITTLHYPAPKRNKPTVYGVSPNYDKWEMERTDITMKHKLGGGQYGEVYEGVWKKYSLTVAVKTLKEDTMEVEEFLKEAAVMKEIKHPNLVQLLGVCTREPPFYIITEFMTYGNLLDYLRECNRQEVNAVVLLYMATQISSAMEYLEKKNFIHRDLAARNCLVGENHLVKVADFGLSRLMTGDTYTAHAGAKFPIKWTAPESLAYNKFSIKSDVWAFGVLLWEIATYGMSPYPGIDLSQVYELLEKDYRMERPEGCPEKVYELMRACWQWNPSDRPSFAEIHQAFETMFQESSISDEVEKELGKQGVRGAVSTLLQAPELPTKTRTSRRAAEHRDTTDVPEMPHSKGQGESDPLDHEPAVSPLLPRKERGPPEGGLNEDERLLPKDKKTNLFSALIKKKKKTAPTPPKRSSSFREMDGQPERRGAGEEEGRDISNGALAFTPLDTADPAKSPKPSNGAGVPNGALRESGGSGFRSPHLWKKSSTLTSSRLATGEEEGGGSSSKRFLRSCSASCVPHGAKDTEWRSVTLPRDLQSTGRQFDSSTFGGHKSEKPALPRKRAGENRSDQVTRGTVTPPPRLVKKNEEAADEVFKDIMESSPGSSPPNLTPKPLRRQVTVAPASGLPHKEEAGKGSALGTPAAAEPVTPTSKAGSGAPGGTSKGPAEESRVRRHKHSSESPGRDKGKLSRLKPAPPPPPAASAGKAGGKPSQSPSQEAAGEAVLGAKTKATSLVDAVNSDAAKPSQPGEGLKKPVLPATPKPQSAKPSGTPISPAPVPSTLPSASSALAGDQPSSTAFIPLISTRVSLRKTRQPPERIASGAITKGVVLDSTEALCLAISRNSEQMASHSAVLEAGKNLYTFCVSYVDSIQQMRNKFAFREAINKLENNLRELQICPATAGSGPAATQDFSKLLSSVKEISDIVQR
Experimental: (§1) To evaluate the selectivity of MI891, an off-target profiling study was performed using a panel of 58 kinases.

EGFR(h) = EGFR(h) (Homo sapiens, UniProt P00533); test: Off-target kinase panel; type: biochemical; details: MI891 @ 1 µM
Experimental: as §1

[2] = target: T1, PI3 Kinase (p110a/p85a)(h) (Homo sapiens, UniProt P42336); test: Off-target kinase panel; type: biochemical; details: MI891 @ 1 µM
T1 construct: purchased Eurofins (Millipore) KinaseProfiler, inferred from the naming style
T1 sequence (P42336 whole entry): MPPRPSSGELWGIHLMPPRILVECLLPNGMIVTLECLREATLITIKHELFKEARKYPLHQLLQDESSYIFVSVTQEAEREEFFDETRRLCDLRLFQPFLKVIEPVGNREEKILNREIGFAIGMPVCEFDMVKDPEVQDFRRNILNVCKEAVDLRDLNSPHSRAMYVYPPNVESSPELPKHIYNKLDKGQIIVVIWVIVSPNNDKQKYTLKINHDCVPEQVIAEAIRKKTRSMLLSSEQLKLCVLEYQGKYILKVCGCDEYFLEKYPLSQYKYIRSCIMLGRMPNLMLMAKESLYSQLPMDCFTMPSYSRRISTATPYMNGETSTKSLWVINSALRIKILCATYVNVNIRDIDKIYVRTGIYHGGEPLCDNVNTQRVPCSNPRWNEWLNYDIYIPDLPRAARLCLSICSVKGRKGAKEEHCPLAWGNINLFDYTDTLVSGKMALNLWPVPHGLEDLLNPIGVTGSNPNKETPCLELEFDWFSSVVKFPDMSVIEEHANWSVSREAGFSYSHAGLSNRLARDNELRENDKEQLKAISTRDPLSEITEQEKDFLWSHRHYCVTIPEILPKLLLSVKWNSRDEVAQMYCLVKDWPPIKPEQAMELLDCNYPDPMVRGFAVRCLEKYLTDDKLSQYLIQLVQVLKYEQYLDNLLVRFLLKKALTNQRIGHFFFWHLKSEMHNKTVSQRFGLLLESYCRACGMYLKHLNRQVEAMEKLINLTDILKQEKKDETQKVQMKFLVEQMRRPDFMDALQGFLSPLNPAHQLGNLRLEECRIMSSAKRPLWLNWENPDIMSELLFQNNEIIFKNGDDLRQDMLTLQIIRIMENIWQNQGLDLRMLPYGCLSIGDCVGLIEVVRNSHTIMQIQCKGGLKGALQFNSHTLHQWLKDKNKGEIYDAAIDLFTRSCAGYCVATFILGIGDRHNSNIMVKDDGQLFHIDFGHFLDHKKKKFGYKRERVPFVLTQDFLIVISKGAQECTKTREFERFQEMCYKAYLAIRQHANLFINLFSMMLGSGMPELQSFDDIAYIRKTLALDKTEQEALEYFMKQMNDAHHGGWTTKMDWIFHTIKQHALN
T1 sequence (P27986 whole entry partner): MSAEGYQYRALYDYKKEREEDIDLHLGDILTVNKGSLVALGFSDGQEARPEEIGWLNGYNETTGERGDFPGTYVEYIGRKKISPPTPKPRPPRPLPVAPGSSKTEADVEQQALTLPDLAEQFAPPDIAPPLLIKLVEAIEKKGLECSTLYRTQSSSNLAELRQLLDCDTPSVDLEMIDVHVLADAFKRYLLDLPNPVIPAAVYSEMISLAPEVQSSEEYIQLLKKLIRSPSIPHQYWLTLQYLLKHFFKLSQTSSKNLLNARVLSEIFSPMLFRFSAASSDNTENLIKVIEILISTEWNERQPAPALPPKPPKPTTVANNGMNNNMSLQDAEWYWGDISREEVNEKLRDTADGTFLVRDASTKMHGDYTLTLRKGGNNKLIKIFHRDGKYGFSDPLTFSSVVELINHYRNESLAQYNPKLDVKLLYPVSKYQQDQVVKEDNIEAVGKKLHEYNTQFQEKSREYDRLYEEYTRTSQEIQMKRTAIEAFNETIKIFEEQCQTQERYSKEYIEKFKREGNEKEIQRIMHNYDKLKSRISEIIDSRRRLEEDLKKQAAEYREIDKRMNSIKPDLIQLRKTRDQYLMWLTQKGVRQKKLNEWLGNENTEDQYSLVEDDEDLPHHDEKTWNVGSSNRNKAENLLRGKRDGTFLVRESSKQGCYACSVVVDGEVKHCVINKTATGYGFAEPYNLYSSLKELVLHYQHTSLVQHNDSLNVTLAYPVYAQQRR
Experimental: as §1

CDK9/cyclin T1(h) = CDK9/cyclin T1(h) (Homo sapiens, UniProt P50750); test: Off-target kinase panel; type: biochemical; details: MI891 @ 1 µM
Experimental: as §1

CaMKI(h) = CaMKI(h) (Homo sapiens, UniProt Q14012); test: Off-target kinase panel; type: biochemical; details: MI891 @ 1 µM
Experimental: as §1

Plk3(h) = target: T2, Plk3(h) (Homo sapiens, UniProt Q9H4B4); test: Off-target kinase panel; type: biochemical; details: MI891 @ 1 µM
T2 construct: purchased Eurofins (Millipore) KinaseProfiler, inferred from the naming style
Experimental: as §1

CDK1/cyclinB(h) = CDK1/cyclinB(h) (Homo sapiens, UniProt P06493); test: Off-target kinase panel; type: biochemical; details: MI891 @ 1 µM
Sequence of CDK1/cyclinB(h) (P06493 whole entry): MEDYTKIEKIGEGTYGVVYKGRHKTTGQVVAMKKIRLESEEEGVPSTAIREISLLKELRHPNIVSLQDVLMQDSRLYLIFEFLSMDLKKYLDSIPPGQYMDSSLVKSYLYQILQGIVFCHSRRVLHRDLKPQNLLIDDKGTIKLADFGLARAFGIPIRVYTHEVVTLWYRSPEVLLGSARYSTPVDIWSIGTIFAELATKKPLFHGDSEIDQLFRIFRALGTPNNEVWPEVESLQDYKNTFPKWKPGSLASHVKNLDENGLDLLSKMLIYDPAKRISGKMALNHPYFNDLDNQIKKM
Sequence of CDK1/cyclinB(h) (P14635 whole entry partner): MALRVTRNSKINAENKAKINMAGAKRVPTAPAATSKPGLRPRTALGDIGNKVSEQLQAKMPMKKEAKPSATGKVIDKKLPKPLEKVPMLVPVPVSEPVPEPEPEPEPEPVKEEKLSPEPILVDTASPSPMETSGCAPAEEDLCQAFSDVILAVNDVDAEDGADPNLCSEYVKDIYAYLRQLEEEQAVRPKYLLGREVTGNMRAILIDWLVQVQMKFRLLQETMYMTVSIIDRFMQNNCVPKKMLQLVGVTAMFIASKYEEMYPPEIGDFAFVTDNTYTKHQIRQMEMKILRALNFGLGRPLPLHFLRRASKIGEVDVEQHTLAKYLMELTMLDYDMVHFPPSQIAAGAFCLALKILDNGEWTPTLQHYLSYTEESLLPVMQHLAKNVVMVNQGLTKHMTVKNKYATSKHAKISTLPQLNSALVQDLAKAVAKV
Experimental: as §1

GSK3β(h) = GSK3β(h) (Homo sapiens, UniProt P49841); test: Off-target kinase panel; type: biochemical; details: MI891 @ 1 µM
Sequence of GSK3β(h) (P49841 whole entry): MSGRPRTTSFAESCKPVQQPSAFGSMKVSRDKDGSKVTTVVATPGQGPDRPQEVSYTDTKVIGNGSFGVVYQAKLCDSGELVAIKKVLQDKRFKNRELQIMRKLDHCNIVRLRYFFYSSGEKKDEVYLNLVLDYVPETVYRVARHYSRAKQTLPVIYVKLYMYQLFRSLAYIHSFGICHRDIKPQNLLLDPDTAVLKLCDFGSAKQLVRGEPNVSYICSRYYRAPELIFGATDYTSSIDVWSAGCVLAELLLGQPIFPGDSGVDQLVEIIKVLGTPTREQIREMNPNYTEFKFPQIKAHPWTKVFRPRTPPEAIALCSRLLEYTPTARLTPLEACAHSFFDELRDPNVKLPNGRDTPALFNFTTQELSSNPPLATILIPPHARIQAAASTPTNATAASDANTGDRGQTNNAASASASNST
Experimental: as §1

PRAK(h) = target: T3, PRAK(h) (Homo sapiens, UniProt Q8IW41); test: Off-target kinase panel; type: biochemical; details: MI891 @ 1 µM
T3 construct: purchased Eurofins (Millipore) KinaseProfiler, inferred from the naming style
T3 sequence (Q8IW41 whole entry): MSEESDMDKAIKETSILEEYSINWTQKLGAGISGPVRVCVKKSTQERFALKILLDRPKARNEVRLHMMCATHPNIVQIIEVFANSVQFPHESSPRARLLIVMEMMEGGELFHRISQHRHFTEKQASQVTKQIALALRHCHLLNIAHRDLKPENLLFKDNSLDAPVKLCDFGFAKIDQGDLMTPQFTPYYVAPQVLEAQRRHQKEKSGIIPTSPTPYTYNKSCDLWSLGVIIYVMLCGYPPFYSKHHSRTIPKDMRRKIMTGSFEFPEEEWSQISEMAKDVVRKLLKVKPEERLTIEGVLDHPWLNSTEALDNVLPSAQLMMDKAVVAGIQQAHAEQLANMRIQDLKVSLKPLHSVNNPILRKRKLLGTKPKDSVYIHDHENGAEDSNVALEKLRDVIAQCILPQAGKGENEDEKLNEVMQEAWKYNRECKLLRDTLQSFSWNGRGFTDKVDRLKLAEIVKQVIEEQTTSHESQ
Experimental: as §1

half-life [1]: > 120 min | activity at 1 µM (Abl(h)): 104% | activity at 1 µM (EGFR(h)): 103% | activity at 1 µM [2]: 92% | activity at 1 µM (CDK9/cyclin T1(h)): 124% | activity at 1 µM (CaMKI(h)): 95% | activity at 1 µM (Plk3(h)): 113% | activity at 1 µM (CDK1/cyclinB(h)): 96% | activity at 1 µM (GSK3β(h)): 99% | activity at 1 µM (PRAK(h)): 81%
Compound: NC(=O)c1cc(Cn2cc(-c3c(-c4ccc(Cl)cc4)nc4c(F)cc(F)cn34)nn2)ccc1Cl [Compound 11, 2-Chloro-5-((4-(2-(4-chlorophenyl)-6,8-difluoroimidazo[1,2-a]pyridin-3-yl)-1H-1,2,3-triazol-1-yl)methyl)-benzamide]
